Results reported in patent US20050233967A1, “Compositions, systems, and methods for focusing a cell-mediated immune response” (priority 2002, published 2005).

Columns and labels:
[1] = test system: IFN-γ; assay: IFN-γ Levels in Chlamydia Patients (ProCon IFN-γ assay, 492 nm); assay type: in vivo, human; settings: urogenital chlamydiosis patients, First Group: claritomycin, doxycyclin and ofloxacin in succession; after treatment
Procedure: Among other cytokine levels, levels of IFN-γ were determined for three groups, each including fifteen (15) individuals, and compared with IFN-γ levels of the aforementioned group of fifteen (15) “normal” blood donors. The individuals of a first group were treated with 500 mg of claritomycin twice daily for ten (10) to fourteen (14) days, 100 mg of doxycyclin once daily for ten (10) days, and 200 mg of ofloxacin twice daily for ten (10) days, with the drugs having been administered in succession. The individuals of the second group received 500 mg of claritomycin twice daily for ten (10) to fourteen (14) days and one capsule of TRANSFER FACTOR PLUS three times each day for ten (10) days, with treatment with the claritomycin and TRANSFER FACTOR PLUS beginning on the same day. In the third group, each individual was treated with 500 mg of claritomycin twice daily for ten (10) to fourteen (14) days and one capsule of TRANSFER FACTOR thrice daily for ten (10) days, with administration of the claritomycin and TRANSFER FACTOR PLUS having begun on the same day. […] The following TABLE 5 lists the collective measures of IFN-γ in all three groups, as determined by use of the ProCon IFN-γ assay available from Protein Contour and photometrically measured at a wavelength of 492 nm. […]

[2] = test system: IFN-γ; assay: IFN-γ Levels in Chronic Opisthorchiasis Patients (ProCon IFN-γ assay, 492 nm); assay type: in vivo, human; settings: Second Group: praziquantel only, two weeks after treatment
Excerpt: Forty-five (45) individuals with chronic opisthorchiasis were split into two groups: a first group including twenty-five (25) individuals and a second group including twenty (20) individuals. The individuals of both groups received conventional praziquantel treatment, an anti-parasitic, or antihelminthic, drug which is used in the treatment of opisthorchiasis and is available under the trade name BILTHRICIDE™ from Bayer AG of Leverkusen, Germany. In addition to praziquantel, two capsules of TRANSFER FACTOR PLUS were administered to the individuals of the first group following praziquantel treatment, three times daily for seven days. The individuals of the second group were only treated with praziquantel.
Levels of various cytokines, including γ-interferon (IFN-γ), antibodies, and immune complexes were determined, by known processes, for each the individuals prior to therapy and two weeks following TRANSFER FACTOR PLUS therapy in the individuals of the […] was discontinued. The following TABLE 4 lists the collective measures of IFN-γ in both groups, as determined by use of the ProCon IFN-γ assay available from Protein Contour of St. Petersburg, Russia, and photometrically measured at a wavelength of 492 nm. TABLE 4 also includes a collective measure of the IFN-γ levels of fifteen (15) “normal” blood donors.

Q: With `CC[C@H]1OC(=O)[C@H](C)[C@@H](O[C@H]2C[C@@](C)(OC)[C@@H](O)[C@H](C)O2)[C@H](C)[C@@H](O[C@@H]2O[C@H](C)C[C@H](N(C)C)[C@H]2O)[C@](C)(OC)C[C@@H](C)C(=O)[C@H](C)[C@@H](O)[C@]1(C)O` [claritomycin] as the compound, how does the IFN-γ level [1] read?
A: 31.4 ± 6.1

Q: Which IFN-γ level [2] does the source give for `O=C(C1CCCCC1)N1CC(=O)N2CCc3ccccc3C2C1` (centres unmarked) [praziquantel] here?
A: 51.4 ± 6.3
